Data: ChEMBL document CHEMBL1201862, “PubChem BioAssay data set” (2004)
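In this assay, cells in 96-well plates receive the compound at five concentrations for 48 hours. Endpoints are linearly interpolated between the surrounding concentrations. GI50: concentration for 50% inhibition of growth.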 Activity calls are given as the source filed them. Rule as the data show it: active = GI50 up to about 1.1 µM and inactive = higher.

Legend:
Experiment in all cases: inhibition of tumour cell growth, NCI panel, 48 h
[1] = tested on: SF-539
[2] = tested on: OVCAR-5
[3] = tested on: CCRF-CEM
[4] = tested on: SK-MEL-28
[5] = tested on: K562
[6] = tested on: UACC-62
[7] = tested on: HL-60
[8] = tested on: IGROV-1
[9] = tested on: OVCAR-3
[10] = tested on: SF-295
[11] = tested on: SNB-75
[12] = tested on: 786-0
[13] = tested on: UACC-257
[14] = tested on: OVCAR-8
[15] = tested on: RPMI-8226
[16] = tested on: KM12

Row | Compound | GI50 [1] | GI50 [2] | GI50 [3] | GI50 [4] | GI50 [5] | GI50 [6] | GI50 [7] | GI50 [8] | GI50 [9] | GI50 [10] | GI50 [11] | GI50 [12] | GI50 [13] | GI50 [14] | GI50 [15] | GI50 [16]
1 | CC(=O)Nc1ccc(C(=O)NN2C(=O)C(Cl)C2c2ccccc2O)cc1 (stereo not drawn) | 42.1 µM (inactive) | > 100 µM (inactive) | 4.9 µM (inactive) | > 100 µM (inactive) | > 100 µM (inactive) | 37.2 µM (inactive) | 84.7 µM (inactive) | > 100 µM (inactive) | 3.26 µM (inactive) | 29.1 µM (inactive) | 36.8 µM (inactive) | 9.06 µM (inactive) | > 100 µM (inactive) | 42.2 µM (inactive) |  | 
2 | CCN1CCC(O)(c2ccc(Cl)c(Cl)c2)C(C(=O)c2ccc(Cl)c(Cl)c2)C1 (stereo not drawn) | 17.7 µM (inactive) | 19.2 µM (inactive) | 17.1 µM (inactive) | 18.2 µM (inactive) | 18 µM (inactive) | 17 µM (inactive) | 15.2 µM (inactive) | 20.6 µM (inactive) | 13.7 µM (inactive) | 17.6 µM (inactive) | 14.3 µM (inactive) | 15.4 µM (inactive) | 18.2 µM (inactive) | 19.8 µM (inactive) | 1.65 µM (inactive) | 
3 | CN(C)CCNC(=O)c1ccc(Cl)c2c(Nc3ccc(S(N)(=O)=O)cc3)c3ccccc3nc12 | 1.21 µM (inactive) | 2.95 µM (inactive) |  | 2.67 µM (inactive) | 0.612 µM (active) | 1.56 µM (inactive) | 0.553 µM (active) | 2.72 µM (inactive) | 2.42 µM (inactive) | 3.41 µM (inactive) | 1.33 µM (inactive) | 1.55 µM (inactive) | 3.44 µM (inactive) | 0.65 µM (active) | 4.5 µM (inactive) | 1.39 µM (inactive)
4 | Nn1c(S)nnc1N/N=C1/C(=O)Nc2ccccc21 | 94 µM (inactive) | > 100 µM (inactive) | 47.3 µM (inactive) | 33.7 µM (inactive) | 59 µM (inactive) | 71.8 µM (inactive) | 94.4 µM (inactive) | 59.2 µM (inactive) | 80.4 µM (inactive) | 82.8 µM (inactive) |  | > 100 µM (inactive) | > 100 µM (inactive) | 49.5 µM (inactive) | 63.2 µM (inactive) | 92.3 µM (inactive)
5 | CCOC(=O)/C(=C/c1cccc(C#N)c1)N(CC)CC | > 100 µM (inactive) | > 100 µM (inactive) | > 100 µM (inactive) | > 100 µM (inactive) | > 100 µM (inactive) | > 100 µM (inactive) | > 100 µM (inactive) | > 100 µM (inactive) |  | > 100 µM (inactive) | > 100 µM (inactive) | > 100 µM (inactive) | > 100 µM (inactive) | > 100 µM (inactive) | > 100 µM (inactive) | > 100 µM (inactive)
6 | C=CC/N=C1\NC(=O)C(CC(=O)Nc2ccc(C)cc2)S1 (stereo not drawn) | > 100 µM (inactive) | > 100 µM (inactive) | > 100 µM (inactive) | > 100 µM (inactive) | > 100 µM (inactive) | > 100 µM (inactive) | > 100 µM (inactive) | > 100 µM (inactive) | > 100 µM (inactive) | > 100 µM (inactive) | > 100 µM (inactive) | > 100 µM (inactive) |  | > 100 µM (inactive) | > 100 µM (inactive) | > 100 µM (inactive)
7 | N#C/C(=C1\OC(=N)C(c2ccc(Cl)cc2Cl)C1=O)c1ccc(Cl)cc1Cl (stereo not drawn) | > 100 µM (inactive) | > 100 µM (inactive) |  | > 100 µM (inactive) | > 100 µM (inactive) | > 100 µM (inactive) | > 100 µM (inactive) | > 100 µM (inactive) | > 100 µM (inactive) | > 100 µM (inactive) | 58.9 µM (inactive) | > 100 µM (inactive) | > 100 µM (inactive) | > 100 µM (inactive) | > 100 µM (inactive) | 
8 | CCOc1ccc(/C=C2/C(=O)N=C(N)N=C2N)cc1OCC |  | > 100 µM (inactive) | > 100 µM (inactive) | > 100 µM (inactive) | > 100 µM (inactive) | > 100 µM (inactive) | > 100 µM (inactive) | > 100 µM (inactive) | > 100 µM (inactive) | > 100 µM (inactive) | > 100 µM (inactive) | > 100 µM (inactive) | > 100 µM (inactive) | > 100 µM (inactive) | > 100 µM (inactive) | > 100 µM (inactive)
9 | CN(C)P(=O)(/C(N)=N/Nc1ccc([N+](=O)[O-])cc1)N(C)C | > 100 µM (inactive) | > 100 µM (inactive) | > 100 µM (inactive) | > 100 µM (inactive) | > 100 µM (inactive) | > 100 µM (inactive) | > 100 µM (inactive) |  | > 100 µM (inactive) |  | > 100 µM (inactive) | > 100 µM (inactive) | > 100 µM (inactive) | > 100 µM (inactive) | > 100 µM (inactive) | > 100 µM (inactive)
10 | CC(=O)O[C@H]1CCC2[C@@H]3CCC4c5nonc5CC[C@]4(C)C3CC[C@@]21C (stereo partly drawn) | > 10 µM (inactive) | > 10 µM (inactive) | > 10 µM (inactive) | > 10 µM (inactive) | > 10 µM (inactive) | > 10 µM (inactive) | > 10 µM (inactive) | > 10 µM (inactive) |  | > 10 µM (inactive) | 51.3 µM (inactive) | > 10 µM (inactive) | > 10 µM (inactive) | > 10 µM (inactive) |  | > 10 µM (inactive)
11 | N#CC(C(=O)/C(=N/N)C(C#N)c1ccccc1)c1ccccc1 (stereo not drawn) | > 100 µM (inactive) | > 100 µM (inactive) | > 100 µM (inactive) | > 100 µM (inactive) | > 100 µM (inactive) | > 100 µM (inactive) | > 100 µM (inactive) | > 100 µM (inactive) | > 100 µM (inactive) | > 100 µM (inactive) |  | > 100 µM (inactive) | > 100 µM (inactive) | > 100 µM (inactive) | > 100 µM (inactive) | > 100 µM (inactive)
12 | COC1C(OC(=O)c2ccc(C)[nH]2)C(O)C(Oc2ccc3c(O)c(NC(=O)c4c[nH]c(C(=O)Nc5c(O)c6ccc(OC7OC(C)(C)C(OC)C(OC(=O)c8ccc(C)[nH]8)C7O)c(C)c6oc5=O)c4C)c(=O)oc3c2C)OC1(C)C (stereo not drawn) |  | 2.84 µM (inactive) | 2.34 µM (inactive) | 0.475 µM (active) | 2.84 µM (inactive) | 0.724 µM (active) | 1.83 µM (inactive) | 1.3 µM (inactive) | 3.26 µM (inactive) | 4.01 µM (inactive) | 0.708 µM (active) | 2.1 µM (inactive) | 3.95 µM (inactive) | 2.81 µM (inactive) | 1.53 µM (inactive) | 1.32 µM (inactive)
13 | O=C1c2ccccc2C(=O)C2C3c4ccccc4C(c4ccccc43)C12 (stereo not drawn) | 12.5 µM (inactive) |  | 10.7 µM (inactive) | 29.8 µM (inactive) | 15.9 µM (inactive) | 33 µM (inactive) |  | 22.9 µM (inactive) | 19.5 µM (inactive) | 12.8 µM (inactive) | 15.6 µM (inactive) | 5.45 µM (inactive) | 23.7 µM (inactive) | 12.6 µM (inactive) | 10.9 µM (inactive) | 28.2 µM (inactive)
14 | CC1=Nc2ccccc2S(=O)(=O)N1 | > 100 µM (inactive) | > 100 µM (inactive) | > 100 µM (inactive) | > 100 µM (inactive) | > 100 µM (inactive) | > 100 µM (inactive) | > 100 µM (inactive) | > 100 µM (inactive) | > 100 µM (inactive) | > 100 µM (inactive) | > 100 µM (inactive) | > 100 µM (inactive) | > 100 µM (inactive) | > 100 µM (inactive) |  | > 100 µM (inactive)
15 | CCOC(=O)C(C(=O)OCC)S(C)(=O)=O | > 100 µM (inactive) | > 100 µM (inactive) | > 100 µM (inactive) | > 100 µM (inactive) | > 100 µM (inactive) | > 100 µM (inactive) | > 100 µM (inactive) | > 100 µM (inactive) | > 100 µM (inactive) | > 100 µM (inactive) |  | > 100 µM (inactive) | > 100 µM (inactive) | > 100 µM (inactive) | > 100 µM (inactive) | > 100 µM (inactive)
16 | COC(=O)c1cc2cc(OC)c(OC)cc2cc(C(=O)OC)c1=O | > 100 µM (inactive) | > 100 µM (inactive) | > 100 µM (inactive) |  | > 100 µM (inactive) | > 100 µM (inactive) | > 100 µM (inactive) | > 100 µM (inactive) | > 100 µM (inactive) | > 100 µM (inactive) | > 100 µM (inactive) | > 100 µM (inactive) | > 100 µM (inactive) | > 100 µM (inactive) | > 100 µM (inactive) | > 100 µM (inactive)
17 | O=c1[nH][nH]c(=O)[nH]1 | > 100 µM (inactive) | > 100 µM (inactive) | > 100 µM (inactive) | > 100 µM (inactive) | > 100 µM (inactive) | > 100 µM (inactive) | > 100 µM (inactive) | > 100 µM (inactive) | > 100 µM (inactive) | > 100 µM (inactive) | > 100 µM (inactive) | > 100 µM (inactive) | > 100 µM (inactive) |  | > 100 µM (inactive) | > 100 µM (inactive)
18 | Cn1cnc([N+](=O)[O-])c1Sc1nc2cc(Cl)c(F)cc2[nH]1 | 4.32 µM (inactive) | 16.8 µM (inactive) |  | 13.5 µM (inactive) |  | 14 µM (inactive) |  | 7.66 µM (inactive) | > 10 µM (inactive) | 48.4 µM (inactive) | 13.8 µM (inactive) | > 10 µM (inactive) | 11.6 µM (inactive) | 3.75 µM (inactive) | 7.24 µM (inactive) | 15 µM (inactive)
